Measured values reported in patent publication US6222035A, “[1,2,4] triazolo [1,5-C] pyrimidine derivatives” (Kyowa Hakko Kogyo Co., Ltd., priority 1997, dated 2001).
Structures can show the parent of a compound that is named as a salt.

Legend:
[1] = system: CGS 21680-induced catalepsy in mice; experiment: Activity on CGS 21680-induced Catalepsy; assay type: in vivo, mouse (male ddY); details: 10 mg/kg oral; for Total score (catalepsy): 10 animals, maximum 50 points, control 48; for Number of Animals showing remission: catalepsy score 4 points or less in 10 cases; for inhibition in vivo at 10 mg/kg: Mus musculus, CGS 21680-induced catalepsy, read-out: Remission ratio (%)
Protocol: Activity on CGS 21680-induced Catalepsy
Parkinson's disease is motor deficit based on the degeneration and cell death of the nigrostriatal dopaminergic neuron. […] [Journal of Neuroscience, 16: 605 (1996)]. Accordingly, it is considered that adenosine A2A receptor agonists positively regulate the output of the striopallidal GABAergic neurons and, as a result, catalepsy is induced by the administration of CGS 21680.
This test was carried out using 10 animals per group of male ddY mice of 5 week age (22 to 25 g in body weight, Japan SLC). CGS 21680 (manufactured by RBI) was dissolved in a physiological saline (manufactured by Otsuka Pharmaceutical), and 10 μg/20 μl of the solution was injected into mouse intracerebro-ventricle. Test compounds were used by suspending them in distilled water containing 0.3% of polyoxyethylene(20)sorbitan monooleate (hereinafter referred to as "Tween 80") (manufactured by Otsuka Pharmaceutical). […] One hour after the administration of the test compound, only forelimbs or only hindlimbs of each animal were laid on a vertically arranged stand made of acryl, having a size of 4.5 cm in height and 1.0 cm in width, to measure catalepsy symptoms. All of the compounds were administered orally in a dose of 10 mg/kg.
The effect was judged by total catalepsy scores of 10 animals in one group (the maximum is 50 points). When the total score was 40 points or less, the activity of drugs was judged positive. The number of animals showing remission of catalepsy was expressed by the number of cases in which the catalepsy score was 4 points or less in 10 cases. The catalepsy remission ratio was expressed as the percentage of the total score in the test compound-administered group to the total score in the control group.

adenosine A2A receptor = target: T1, adenosine A2A receptor (Rattus norvegicus, UniProt P30543); experiment: Adenosine receptor binding activity (adenosine A2A receptor binding test), 3H-CGS 21680 binding; details: 2 h, read-out: A2A receptor inhibition ratio (%); for inhibition at 0.1 µM: 10^-7 M; for inhibition at 0.01 µM: 10^-8 M
T1 construct: from tissue; host or cells: rat corpus striatum, washed membrane suspension
Protocol: Adenosine receptor binding activity (adenosine A2A receptor binding test) This test was carried out by slightly modifying the method of Bruns et al. [Molecular Pharmacology, 29: 331 (1986)].
Corpus striatum of a rat was suspended in an ice-cooled 50 mM tris(hydroxymethyl)aminomethane hydrochloride (hereinafter referred to as "Tris-HCl") buffer (pH 7.7) using Polytron Homogenizer (manufactured by Kinematica Co.). The suspension was centrifuged (50,000×g, 10 minutes), and the obtained precipitate was re-suspended in the same amount of 50 mM Tris-HCl buffer. The suspension was centrifuged under the same conditions, and the final precipitate was suspended in 50 mM Tris-HCl [containing 10 mM magnesium chloride and 0.02 unit/mg tissue of adenosine deaminase (manufactured by Sigma Co.)] to give a tissue concentration of 5 mg (wet weight)/ml.
To 1 ml of the tissue suspension thus prepared were added 50 μl of tritium-labeled CGS 21680 {^3 H-2-[p-(2-carboxyethyl)phenethylamino]-5'-N-ethylcarboxamido)adenosine: 40 Ci/mmol; manufactured by New England Nuclear Co.[The Journal of Pharmacology and Experimental Therapeutics, 251: 888 (1989)]} (final concentration:4.0 nM) and 50 μl of a test compound. The resulting mixture was allowed to stand for 120 minutes at 25° C., and then rapidly filtered by suction through a glass fiber filter (GF/C, manufactured by Whatman Co.) The filter was immediately washed three times with […] of an ice-cooled 50 mM Tris-HCl buffer, and transferred to a vial, a scintillator (EX-H , manufactured by Wako Pure Chemical Industries, Ltd.) was added thereto, and the radioactivity on the filter was determined with a liquid scintillation counter (manufactured by Packard Instrument Co.) […]
The inhibition ratio of the test compound against the A2A receptor binding (^3 H-CGS 21680 binding) was calculated by the following equation:
Inhibition ratio (%)={1-(Amount of the binding in the presence of the test compound-Amount of the nonspecific binding)/(Amount of the total binding-Amount of the nonspecific binding)}×100
(Note) Amount of the total binding means the amount of radioactivity of ^3 H-CGS 21680 bound in the absence of the test compound. Amount of the nonspecific binding means the amount of radioactivity of ^3 H-CGS 21680 bound in the presence of 100 μM cyclopentyladenosine (CPA, manufactured by Sigma Co.) Amount of the binding in the presence of the test compound means the amount of radioactivity of ^3 H-CGS 21680 bound in the presence of the test compound at various levels of concentrations.

T1 sequence (P30543 whole entry): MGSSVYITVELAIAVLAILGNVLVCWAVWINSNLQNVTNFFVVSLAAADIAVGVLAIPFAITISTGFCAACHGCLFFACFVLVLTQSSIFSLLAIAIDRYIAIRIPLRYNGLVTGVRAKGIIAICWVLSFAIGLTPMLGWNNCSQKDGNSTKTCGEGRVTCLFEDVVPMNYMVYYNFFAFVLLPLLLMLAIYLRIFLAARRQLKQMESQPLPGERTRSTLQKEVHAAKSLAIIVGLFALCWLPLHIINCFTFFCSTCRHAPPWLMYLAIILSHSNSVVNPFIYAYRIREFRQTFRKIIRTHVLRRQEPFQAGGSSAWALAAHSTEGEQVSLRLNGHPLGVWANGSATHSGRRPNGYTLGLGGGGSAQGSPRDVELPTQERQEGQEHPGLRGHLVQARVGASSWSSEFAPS

Row | SMILES | inhibition at 0.1 µM (adenosine A2A receptor) | inhibition at 0.01 µM (adenosine A2A receptor) | Total score (catalepsy) [1] | Number of Animals showing remission [1] | inhibition in vivo at 10 mg/kg [1]
1 | COc1ccc(OC)c(CN2CCN(c3cc4nc(-c5ccco5)nn4c(N)n3)CC2)c1 [Compound 75, 5-Amino-7-((2,5-dimethoxybenzyl)piperazinyl)-2-(2-furyl)[1,2,4]triazolo[1,5-c]pyrimidine] | 84% |  | 10 | 9 | 76%
2 | Nc1nc(N2CCN(Cc3ccncc3)CC2)cc2nc(-c3ccco3)nn12 [Compound 71, 5-Amino-2-(2-furyl)-7-[4-(4-picolyl)piperazinyl][1,2,4]triazolo[1,5-c]pyrimidine] | 73% | 29% |  |  | 
3 | Nc1nc(N2CCN(Cc3c(Cl)cccc3Cl)CC2)cc2nc(-c3ccco3)nn12 [Compound 80, 5-Amino-7-(4-(2,6-dichlorobenzyl)piperazinyl)-2-(2-furyl)[1,2,4]triazolo[1,5-c]pyrimidine hydrochloride] | 93% |  | 3 | 10 | 92%
4 | COc1ccc(CCCN2CCN(c3cc4nc(-c5ccco5)nn4c(N)n3)CC2)cc1OC [Compound 86, 5-Amino-7-(4-(3-(3,4-dimethoxyphenyl)propyl)piperazinyl)-2-(2-furyl)[1,2,4]triazolo[1,5-c]pyrimidine] | 83% |  | 13 | 9 | 72%
5 | COc1ccc(CCN2CCN(c3cc4nc(-c5ccco5)nn4c(N)n3)CC2)cc1OC [Compound 85, 5-Amino-7-(4-(2-(3,4-dimethoxyphenyl)ethyl)piperazinyl)-2-(2-furyl)[1,2,4]triazolo[1,5-c]pyrimidine] | 80% |  |  |  | 
6 | COc1cc(OC)cc(Oc2cc3nc(-c4ccco4)nn3c(N)n2)c1 [Compound 33, 5-Amino-7-(3,5-dimethoxyphenoxy)-2-(2-furyl)[1,2,4]triazolo[1,5-c]pyrimidine] | 86% | 46% |  |  | 
7 | Nc1nc(N2CCN(CC3CCCCC3)CC2)cc2nc(-c3ccco3)nn12 [Compound 72, 5-Amino-7-(4-cyclohexylmethylpiperazinyl)-2-(2-furyl)[1,2,4]triazolo[1,5-c]pyrimidine] | 66% | 10% |  |  | 
8 | Nc1nc(N2CCN(Cc3ccccc3Cl)CC2)cc2nc(-c3ccco3)nn12 [Compound 68, 5-Amino-7-[4-(2-chlorobenzyl)piperazinyl]-2-(2-furyl)[1,2,4]triazolo[1,5-c]pyrimidine] | 90% | 59% |  |  | 
9 | Nc1nc(N2CCN(c3nc4ccccc4o3)CC2)cc2nc(-c3ccco3)nn12 [Compound 94, 5-Amino-7-(4-(2-benzoxazolyl)piperazinyl)-2-(2-furyl)[1,2,4]triazolo[1,5-c]pyrimidine] | 37% |  |  |  | 
10 | CC(c1ccccc1)N1CCN(c2cc3nc(-c4ccco4)nn3c(N)n2)CC1 (stereo not shown) [Compound 73, 5-Amino-2-(2-furyl)-7-[4-(1-phenylethyl)piperazinyl][1,2,4]triazolo[1,5-c]pyrimidine] | 86% | 51% |  |  | 
11 | Nc1nc(N2CCN(Cc3cccc(Cl)c3)CC2)cc2nc(-c3ccco3)nn12 [Compound 69, 5-Amino-7-[4-(3-chlorobenzyl)piperazinyl]-2-(2-furyl)[1,2,4]triazolo[1,5-c]pyrimidine] | 62% | 44% |  |  | 
12 | Nc1nc(N2CCN(Cc3cccnc3)CC2)cc2nc(-c3ccco3)nn12 [Compound 70, 5-Amino-2-(2-furyl)-7-[4-(3-picolyl)piperazinyl][1,2,4]triazolo[1,5-c]pyrimidine] | 66% | 17% |  |  | 
13 | COc1ccc(CNc2nc(Sc3ccccc3)cc3nc(-c4ccco4)nn23)cc1OC [Compound 10, 5-(3,4-Dimethoxybenzylamino)-2-(2-furyl)-7-phenylthio[1,2,4]triazolo[1,5-c]pyrimidine] | 54% | 16% |  |  | 
14 | Nc1nc(N2CCN(Cc3ccc4c(c3)OCO4)CC2)cc2nc(-c3ccco3)nn12 [Compound 66, 5-Amino-2-(2-furyl)-7-(4-piperonylpiperazinyl)[1,2,4]triazolo[1,5-c]pyrimidine] | 79% | 20% |  |  | 
15 | COc1ccc(CN2CCN(c3cc4nc(-c5ccco5)nn4c(N)n3)CC2)cc1OC [Compound 67, 5-Amino-7-[4-(3,4-dimethoxybenzyl)piperazinyl]-2-(2-furyl)[1,2,4]triazolo[1,5-c]pyrimidine] | 77% | 39% |  |  | 

More lines, main results first:

Row | inhibition at 0.1 µM (adenosine A2A receptor) | inhibition at 0.01 µM (adenosine A2A receptor) | SMILES | Total score (catalepsy) [1] | Number of Animals showing remission [1] | inhibition in vivo at 10 mg/kg [1]
16 | 59% |  | Nc1nc(N2CCN(CCCF)CC2)cc2nc(-c3ccco3)nn12 [Compound 127, 5-Amino-7-(4-(3-fluoropropyl)piperazinyl)-2-(2-furyl)[1,2,4]triazolo[1,5-c]pyrimidine] | 3 | 10 | 96%
17 | 52% |  | Cc1ccc(CSc2cc3nc(-c4ccco4)nn3c(N)n2)cc1 [Compound 186, 5-Amino-2-(2-furyl)-7-(4-methylbenzylthio)[1,2,4]triazolo[1,5-c]pyrimidine] |  |  | 
18 | 82% |  | Nc1nc(SCc2ccccn2)cc2nc(-c3ccco3)nn12 [Compound 182, 5-Amino-2-(2-furyl)-7-(2-picolylthio)[1,2,4]triazolo[1,5-c]pyrimidine] |  |  | 
19 | 72% |  | Nc1nc(N2CCN(CCCOCc3ccccc3)CC2)cc2nc(-c3ccco3)nn12 [Compound 102, 5-Amino-7-(4-(3-benzyloxypropyl)piperazinyl)-2-(2-furyl)[1,2,4]triazolo[1,5-c]pyrimidine hydrochloride] |  |  | 
20 | 51% |  | C[C@@H]1CN(c2cc3nc(-c4ccco4)nn3c(N)n2)C[C@H](C)N1CCCc1ccccc1 [Compound 119, 5-Amino-7-(cis-3,5-dimethyl-4-(3-phenylpropyl)piperazinyl)-2-(2-furyl)[1,2,4]triazolo[1,5-c]pyrimidine] |  |  | 
21 | 52% |  | CC(CO)N1CCN(c2cc3nc(-c4ccco4)nn3c(N)n2)CC1 (racemic) [Compound 111, (±)-5-Amino-2-(2-furyl)-7-(4-((2-hydroxy-1-methyl)ethyl)piperazinyl)[1,2,4]triazolo[1,5-c]pyrimidine] |  |  | 
22 | 75% |  | Nc1nc(SCc2ccccc2[N+](=O)[O-])cc2nc(-c3ccco3)nn12 [Compound 194, 5-Amino-2-(2-furyl)-7-(2-nitrobenzylthio)[1,2,4]triazolo[1,5-c]pyrimidine] |  |  | 
23 | 82% |  | Nc1nc(SCc2ccccc2)cc2nc(-c3ccco3)nn12 [Compound 183, 5-Amino-7-benzylthio-2-(2-furyl)[1,2,4]triazolo[1,5-c]pyrimidine] |  |  | 
24 | 38% |  | COCCN1[C@H](C)CN(c2cc3nc(-c4ccco4)nn3c(N)n2)C[C@@H]1C [Compound 117, 5-Amino-7-(cis-3,5-dimethyl-4-(2-methoxyethyl)piperazinyl)-2-(2-furyl)[1,2,4]triazolo[1,5-c]pyrimidine] |  |  | 
